Assay results reported in ChEMBL document CHEMBL3352229, “20(S)-Ginsenoside Rh2 as aldose reductase inhibitor from Panax ginseng” (Bioorg Med Chem Lett, 2014).

Biological target: Aldo-keto reductase family 1 member B1 (Homo sapiens, UniProt P15121)
Assay: Inhibition of human recombinant aldose reductase using DL-glyceraldehyde, HRAR and beta-NADPH incubated for 10 mins by spectrophotometry

## CC(C)=CCC[C@@](C)(O)[C@H]1CC[C@]2(C)[C@@H]1[C@H](O)C[C@@H]1[C@@]3(C)CC[C@H](O[C@@H]4O[C@H](CO)[C@@H](O)[C@H](O)[C@H]4O[C@@H]4O[C@H](CO)[C@@H](O)[C@H](O)[C@H]4O)C(C)(C)[C@@H]3CC[C@]12C
  IC50: > 200 µM

## CC(C)=CCC[C@@](C)(O)[C@H]1CC[C@]2(C)[C@@H]1[C@H](O)C[C@@H]1[C@@]3(C)CC[C@H](O[C@@H]4O[C@H](CO)[C@@H](O)[C@H](O)[C@H]4O)C(C)(C)[C@@H]3CC[C@]12C
  IC50: > 200 µM

## CC(C)=CCC[C@](C)(O)[C@H]1CC[C@@]2(C)[C@@H]1[C@@H](O)C[C@@H]1[C@@]3(C)CC[C@H](O)C(C)(C)[C@@H]3[C@@H](O[C@@H]3O[C@H](CO)[C@@H](O)[C@H](O)[C@H]3O[C@@H]3O[C@H](CO)[C@@H](O)[C@H](O)[C@H]3O)C[C@]12C
  IC50: > 200 µM

## CC(C)=CCC[C@](C)(O[C@@H]1O[C@H](CO)[C@@H](O)[C@H](O)[C@H]1O)[C@H]1CC[C@]2(C)[C@@H]1[C@H](O)C[C@@H]1[C@@]3(C)CC[C@H](O)C(C)(C)[C@@H]3CC[C@]12C
  IC50: > 200 µM

## CC(C)=CCC[C@](C)(O)[C@H]1CC[C@]2(C)[C@@H]1[C@H](O)C[C@@H]1[C@@]3(C)CC[C@H](O[C@@H]4O[C@H](CO)[C@@H](O)[C@H](O)[C@H]4O[C@@H]4O[C@H](CO)[C@@H](O)[C@H](O)[C@H]4O)C(C)(C)[C@@H]3CC[C@]12C
  IC50: > 200 µM

## CC(C)=CCCC(C)(O)[C@H]1CC[C@]2(C)[C@@H]1[C@H](O)C[C@@H]1[C@@]3(C)CC[C@H](O[C@@H]4O[C@H](CO)[C@@H](O)[C@H](O)[C@H]4O)C(C)(C)[C@@H]3CC[C@]12C (mixture of isomers)
  IC50: > 200 µM

## CC(C)=CCC[C@](C)(O)[C@H]1CC[C@]2(C)[C@@H]1[C@H](O)C[C@@H]1[C@@]3(C)CC[C@H](O)C(C)(C)[C@@H]3[C@@H](O[C@@H]3O[C@H](CO)[C@@H](O)[C@H](O)[C@H]3O)C[C@]12C [GINSENOSIDE RH1]
  IC50: > 200 µM

## CC(C)=CCC[C@](C)(O)[C@H]1CC[C@]2(C)[C@@H]1[C@H](O)C[C@@H]1[C@@]3(C)CC[C@H](O[C@@H]4O[C@H](CO)[C@@H](O)[C@H](O)[C@H]4O)C(C)(C)[C@@H]3CC[C@]12C [GINSENOSIDE RH2]
  IC50: 147 µM
